# From paper PMC7055211 (Scientific Reports, 2020)
# Test system: Mahoney strain of poliovirus
# Format: cell-based, Poliovirus Type I Mahoney
# Details: 293 T; infectivity; PFU
structure (smiles),measurement,value
"COc1ccc2[nH]c([S+]([O-])Cc3ncc(C)c(OC)c3C)nc2n1 (stereo not shown) [Tenatoprazole, tenatoprazole]","Virus Production (resistant or susceptible), PV",Resistant
